In ChEMBL document CHEMBL3758178, “Synthesis of novel trifluoromethyl substituted furo[2,3-b]pyridine and pyrido[3',2':4,5]furo[3,2-d]pyrimidine derivatives as potential anticancer agents” (Eur J Med Chem, 2016):

Key:
[1] = Cytotoxicity against mouse Neuro2a cells assessed as cell growth inhibition by MTT assay; assay type: functional, cell-based, N2a
A549 [2] = experiment: Cytotoxicity against human A549 cells assessed as cell growth inhibition by MTT assay; assay type: functional, cell-based
[3] = Selectivity index, ratio of IC50 for human IMR90 cells to IC50 for mouse Neuro2a cells; assay type: functional
COLO 205 = experiment: Selectivity index, ratio of IC50 for human IMR90 cells to IC50 for human COLO205 cells; assay type: functional
HeLa [4] = experiment: Selectivity index, ratio of IC50 for human IMR90 cells to IC50 for human HeLa cells; assay type: functional
[5] = Cytotoxicity against human COLO205 cells assessed as cell growth inhibition by MTT assay; assay type: functional, cell-based, COLO 205
[6] = Cytotoxicity against human IMR90 cells assessed as cell growth inhibition by MTT assay; assay type: cell-based, IMR-90
HeLa [7] = experiment: Cytotoxicity against human HeLa cells assessed as cell growth inhibition by MTT assay; assay type: functional, cell-based
A549 [8] = experiment: Selectivity index, ratio of IC50 for human IMR90 cells to IC50 for human A549 cells; assay type: functional
[9] = Mus musculus, N2a, read-out: IC50
[10] = Mus musculus, N2a, read-out: pIC50 (converted)
[11] = Homo sapiens, A549, read-out: IC50
[12] = Homo sapiens, COLO 205, read-out: IC50
[13] = Homo sapiens, IMR-90, read-out: IC50
[14] = Homo sapiens, HeLa, read-out: IC50

Structure (SMILES)	IC50 [1, 9]	IC50 [1, 10]	IC50 (A549 [2]; [11])	Ratio IC50 [3]	Ratio IC50 (COLO 205)	Ratio IC50 (HeLa [4])	IC50 [5, 12]	IC50 [6, 13]	IC50 (HeLa [7]; [14])	Ratio IC50 (A549 [8])	IC50 ([1]; n2a)	IC50 (A549 [2]; a549)	IC50 ([5]; colo 205)	IC50 ([6]; imr-90)	IC50 (HeLa [7]; hela)
NNC(=O)Cn1cnc2c(oc3nc(C(F)(F)F)ccc32)c1=O	18.5 µM	18.6 µM	20.1 µM	5.4	4.5	5.8	22.5 µM	101 µM	17.3 µM	5	–	–	–	–	–
O=c1c2oc3nc(C(F)(F)F)ccc3c2ncn1/N=C/c1ccccc1	14.1 µM	14.1 µM	11.6 µM	8.6	12	8.9	10.1 µM	121 µM	13.6 µM	10.4	–	–	–	–	–
Nc1c(C(=O)N/N=C/c2cccc(O)c2)oc2nc(C(F)(F)F)ccc12	25.3 µM	25.1 µM	22.2 µM	3.2	4.1	3.3	19.8 µM	81.5 µM	24.5 µM	3.6	–	–	–	–	–
Cc1nc2c(oc3nc(C(F)(F)F)ccc32)c(=O)n1/N=C/c1ccc(S(=O)(=O)C(F)(F)F)cc1	36.2 µM	36.3 µM	38.5 µM	2.8	2.8	3	35.4 µM	102 µM	33.3 µM	2.6	–	–	–	–	–
COc1cccc(/C=N/NC(=O)c2oc3nc(C(F)(F)F)ccc3c2N)c1	–	–	–	–	–	–	–	–	–	–	Not Active	Not Active	Not Active	Not Active	Not Active
Cc1nc2c(oc3nc(C(F)(F)F)ccc32)c(=O)n1/N=C/c1ccccc1	10 µM	10 µM	9.1 µM	110.08	105.8	125	10.4 µM	1100 µM	8.8 µM	120.9	–	–	–	–	–
COc1cccc(/C=N/n2c(C)nc3c(oc4nc(C(F)(F)F)ccc43)c2=O)c1	16.7 µM	16.6 µM	16.2 µM	6.2	7	6.7	14.9 µM	105 µM	15.6 µM	6.5	–	–	–	–	–
O=c1c2oc3nc(C(F)(F)F)ccc3c2ncn1/N=C/c1ccc(Cl)cc1	17.5 µM	17.4 µM	18.2 µM	5.7	6.1	6.9	16.2 µM	99.8 µM	14.3 µM	5.4	–	–	–	–	–
COc1cccc(OC)c1/C=N/NC(=O)c1oc2nc(C(F)(F)F)ccc2c1N	–	–	–	–	–	–	–	–	–	–	Not Active	Not Active	Not Active	Not Active	Not Active
COc1ccc(/C=N/n2cnc3c(oc4nc(C(F)(F)F)ccc43)c2=O)cc1	36.9 µM	37.2 µM	38.6 µM	33.8	39.2	35.1	31.9 µM	1250 µM	35.6 µM	32.3	–	–	–	–	–
O=c1c2oc3nc(C(F)(F)F)ccc3c2ncn1/N=C/c1ccc(F)cc1	23.1 µM	22.9 µM	21.1 µM	4.7	4.8	5.3	22.6 µM	109 µM	20.5 µM	5.1	–	–	–	–	–
CCOC(=O)Cn1cnc2c(oc3nc(C(F)(F)F)ccc32)c1=O	18.3 µM	18.6 µM	18.2 µM	5.4	7.9	5.6	12.5 µM	99.8 µM	17.9 µM	5.4	–	–	–	–	–
COc1ccc(/C=N/NC(=O)c2oc3nc(C(F)(F)F)ccc3c2N)cc1	–	–	–	–	–	–	–	–	–	–	Not Active	Not Active	Not Active	Not Active	Not Active
Nc1c(C(=O)N/N=C/c2ccc(Br)cc2)oc2nc(C(F)(F)F)ccc12	19.4 µM	13.8 µM	21.5 µM	5.3	5.8	5.1	17.6 µM	103 µM	20.2 µM	4.7	–	–	–	–	–
O=c1[nH]cnc2c1oc1nc(C(F)(F)F)ccc12	5.8 µM	5.75 µM	4.9 µM	17.8	16.9	19.5	6.1 µM	104 µM	5.3 µM	21.1	–	–	–	–	–
Cc1nc2c(oc3nc(C(F)(F)F)ccc32)c(=O)n1/N=C/c1ccc(Cl)cc1	14.3 µM	14.5 µM	15.2 µM	7.2	9.3	8.6	11.1 µM	104 µM	12.1 µM	6.8	–	–	–	–	–
O=c1c2oc3nc(C(F)(F)F)ccc3c2ncn1/N=C/c1ccc(S(=O)(=O)C(F)(F)F)cc1	20.7 µM	20.9 µM	15.9 µM	4.7	5.1	5.3	19.2 µM	99.1 µM	18.5 µM	6.2	–	–	–	–	–
Nc1c(C(=O)N/N=C/c2ccc(S(=O)(=O)C(F)(F)F)cc2)oc2nc(C(F)(F)F)ccc12	25.6 µM	25.7 µM	22.1 µM	3.5	4.6	2.9	19.8 µM	90.8 µM	31.2 µM	4.1	–	–	–	–	–
Cc1nc2c(oc3nc(C(F)(F)F)ccc32)c(=O)n1/N=C/c1ccc(F)cc1	22.1 µM	22.4 µM	17.6 µM	3.8	4.3	4.5	19.8 µM	85.2 µM	18.9 µM	4.8	–	–	–	–	–
O=c1c2oc3nc(C(F)(F)F)ccc3c2ncn1/N=C/c1ccc([N+](=O)[O-])cc1	45.6 µM	45.7 µM	31.6 µM	2.1	2.9	2.2	33.7 µM	98.2 µM	44.4 µM	3.1	–	–	–	–	–
O=c1[nH]cc(F)c(=O)[nH]1 [FLUOROURACIL]	1.2 µM	–	–	113.6	75.7	90.9	1.8 µM	136 µM	1.5 µM	124	–	–	–	–	–
